Converted amounts (≈) assume the structure as drawn.
How the values were obtained:
Adenosine receptor A2a [1] = target: T1, Adenosine receptor A2a (Homo sapiens, UniProt P29274)
Description: Displacement of [3H]CGS21680 from human adenosine A2A receptor

Adenosine receptor A1 = target: T2, Adenosine receptor A1 (Homo sapiens, UniProt P30542)
T2 sequence (P30542 whole entry): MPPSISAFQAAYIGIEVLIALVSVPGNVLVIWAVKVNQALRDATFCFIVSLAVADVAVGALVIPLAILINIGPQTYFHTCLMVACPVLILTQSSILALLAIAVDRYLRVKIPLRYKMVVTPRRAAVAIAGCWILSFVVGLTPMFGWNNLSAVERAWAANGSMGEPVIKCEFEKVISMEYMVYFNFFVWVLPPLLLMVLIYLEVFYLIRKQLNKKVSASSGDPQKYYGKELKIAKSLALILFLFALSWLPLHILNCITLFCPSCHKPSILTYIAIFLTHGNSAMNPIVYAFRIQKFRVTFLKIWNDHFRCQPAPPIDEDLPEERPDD
Description: Displacement of [3H]CGS21680 from human adenosine A1 receptor

Adenosine receptor A2b = target: T3, Adenosine receptor A2b (Homo sapiens, UniProt P29275); assay: Binding affinity to adenosine A2B receptor
T3 sequence (P29275 whole entry): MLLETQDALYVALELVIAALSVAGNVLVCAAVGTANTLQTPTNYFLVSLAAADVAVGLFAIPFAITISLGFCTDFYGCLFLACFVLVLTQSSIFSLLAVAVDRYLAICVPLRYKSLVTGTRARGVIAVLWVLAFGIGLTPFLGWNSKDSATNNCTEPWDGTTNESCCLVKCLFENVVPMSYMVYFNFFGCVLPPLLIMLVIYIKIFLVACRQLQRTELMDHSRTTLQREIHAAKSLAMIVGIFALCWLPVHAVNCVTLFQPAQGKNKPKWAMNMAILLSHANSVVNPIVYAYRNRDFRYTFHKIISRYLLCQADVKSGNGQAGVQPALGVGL

Adenosine receptor A3 = target: T4, Adenosine receptor A3 (Homo sapiens, UniProt P0DMS8); assay: Binding affinity to adenosine A3 receptor
T4 sequence (P0DMS8 whole entry): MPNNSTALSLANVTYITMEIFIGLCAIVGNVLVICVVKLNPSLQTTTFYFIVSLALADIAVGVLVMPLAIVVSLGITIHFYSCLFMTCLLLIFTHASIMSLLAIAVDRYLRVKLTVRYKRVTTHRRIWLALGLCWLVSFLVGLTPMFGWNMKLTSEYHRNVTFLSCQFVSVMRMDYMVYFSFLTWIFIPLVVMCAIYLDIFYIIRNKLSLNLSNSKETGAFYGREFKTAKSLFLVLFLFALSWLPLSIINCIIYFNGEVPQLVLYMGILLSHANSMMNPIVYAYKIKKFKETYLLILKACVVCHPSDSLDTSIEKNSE

Homo sapiens [2] = species on record: Homo sapiens; assay: Selectivity for human adenosine A2A receptor over human adenosine A2B receptor
Homo sapiens [3] = species on record: Homo sapiens; assay: Selectivity for human adenosine A2A receptor over human adenosine A3 receptor
Adenosine receptor A2a [4] = target: T1, Adenosine receptor A2a; remark: listed apart in the source
Description: Agonist activity against human adenosine A2A receptor assessed as calcium mobilization by FLIPR assay

Mus musculus = assay: Reversal of haloperidol-induced locomotor movement deficit in po dosed mouse assessed as minimum effective dose administered 15 mins before testing; conditions: read-out: MED
[5] = Aqueous solubility of the compound; format: physicochemical
[6] = Inhibition of Cytochrome P450; format: ADME
[7] = Half life in po dosed Sprague-Dawley rat plasma; format: ADME, organism-based
Brain = assay: Drug uptake in Sprague-Dawley rat brain at 2 mg/kg, iv; format: ADME, organism-based; set-up: dose 2 mg/kg, route intravenous; conditions: in vivo
[8] = Half life in po dosed Sprague-Dawley rat brain; format: ADME, organism-based
[9] = Tmax in Sprague-Dawley rat plasma; format: ADME, organism-based

T1 sequence (P29274 whole entry): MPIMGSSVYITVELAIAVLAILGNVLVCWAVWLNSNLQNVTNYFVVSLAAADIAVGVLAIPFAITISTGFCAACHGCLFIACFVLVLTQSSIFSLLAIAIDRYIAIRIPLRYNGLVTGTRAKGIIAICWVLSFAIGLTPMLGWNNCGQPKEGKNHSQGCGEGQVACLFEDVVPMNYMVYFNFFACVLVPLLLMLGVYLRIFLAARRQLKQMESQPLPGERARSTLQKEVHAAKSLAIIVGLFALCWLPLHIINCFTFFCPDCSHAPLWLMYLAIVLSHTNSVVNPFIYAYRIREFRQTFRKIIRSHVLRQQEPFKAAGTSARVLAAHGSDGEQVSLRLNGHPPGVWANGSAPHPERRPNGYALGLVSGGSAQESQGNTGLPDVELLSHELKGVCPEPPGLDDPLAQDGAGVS

SMILES	Ki (Adenosine receptor A2a [1])	Ki (Adenosine receptor A1)	Ki (Adenosine receptor A2b)	Ki (Adenosine receptor A3)	EC50 (Adenosine receptor A2a [4])	minimal effective dose (Mus musculus)	also measured
Nc1nc(NC(=O)c2ccccc2OC(F)(F)F)c([N+](=O)[O-])c(-c2ccco2)n1	16 nM	298 nM	–	–	–	–	–
Nc1nc(C(=O)NCc2ccco2)cc(-c2ccco2)n1	14 nM	214 nM	–	–	–	–	–
Cc1cccc(CNC(=O)c2cc(-c3ccco3)nc(N)n2)c1	2.6 nM	38 nM	402 nM	1530 nM	≥ 10000 nM	3 mg/kg	Ratio Ki (Homo sapiens [2]): < 1000; Ratio Ki (Homo sapiens [3]): < 1000
Nc1nc(NC(=O)c2cccnc2)c([N+](=O)[O-])c(-c2ccco2)n1	220 nM	3540 nM	–	–	–	–	–
Nc1nc(C(=O)NCc2cccc(Cl)c2)cc(-c2ccco2)n1	3.7 nM	12.2 nM	184 nM	507 nM	≥ 10000 nM	–	–
COc1cccc(CNC(=O)c2cc(-c3ccco3)nc(N)n2)c1	6.1 nM	47 nM	121 nM	1100 nM	≥ 10000 nM	–	–
Nc1nc(C(=O)NCc2cccc(CO)n2)cc(-c2ccco2)n1	9.3 nM	260 nM	–	–	–	30 mg/kg	–
COc1ccccc1C(=O)Nc1nc(N)nc(-c2ccco2)c1[N+](=O)[O-]	170 nM	770 nM	–	–	–	–	–
Nc1nc(C(=O)NCc2ccccn2)cc(-c2ccco2)n1	–	–	754 nM	1390 nM	–	3 mg/kg	–
CCn1c(=O)c2c(nc(/C=C/c3ccc(OC)c(OC)c3)n2C)n(CC)c1=O [ISTRADEFYLLINE]	–	–	–	–	–	0.3 mg/kg	–
Nc1cccc(CNC(=O)c2cc(-c3ccco3)nc(N)n2)n1	7 nM	131 nM	444 nM	1480 nM	≥ 10000 nM	1 mg/kg	–
Nc1nc(C(=O)NCc2ccccc2F)cc(-c2ccco2)n1	3.5 nM	54 nM	67 nM	335 nM	≥ 10000 nM	30 mg/kg	–
Nc1nc(C(=O)NCc2ccc(Cl)cc2)cc(-c2ccco2)n1	17.5 nM	80 nM	–	–	–	–	–
COc1ccc(CNC(=O)c2cc(-c3ccco3)nc(N)n2)cc1	79 nM	157 nM	–	–	–	–	–
Nc1nc(C(=O)NCc2ccccc2Cl)cc(-c2ccco2)n1	2.6 nM	72 nM	137 nM	414 nM	≥ 10000 nM	30 mg/kg	–
COc1ccccc1CC(=O)Nc1nc(N)nc(-c2ccco2)c1[N+](=O)[O-]	10 nM	884 nM	–	–	–	–	–
Cc1ccccc1CNC(=O)c1cc(-c2ccco2)nc(N)n1	2.2 nM	73 nM	917 nM	586 nM	≥ 10000 nM	30 mg/kg	–
Nc1nc(C(=O)NCc2ccccc2)cc(-c2ccco2)n1	7.6 nM	58 nM	858 nM	857 nM	≥ 10000 nM	–	–
COc1ccccc1CNC(=O)c1cc(-c2ccco2)nc(N)n1	3.5 nM	34.5 nM	156 nM	402 nM	≥ 10000 nM	20 mg/kg	–
Nc1nc(NC(=O)c2ccccc2)c([N+](=O)[O-])c(-c2ccco2)n1	308 nM	2060 nM	–	–	–	–	–
Nc1nc(NC(=O)c2ccccc2F)c([N+](=O)[O-])c(-c2ccco2)n1	23 nM	311 nM	–	–	–	–	–
Cc1ccc(CNC(=O)c2cc(-c3ccco3)nc(N)n2)cc1	9.5 nM	102 nM	1240 nM	1850 nM	≥ 10000 nM	–	–
Nc1nc(C(=O)NCc2cccnc2)cc(-c2ccco2)n1	9.4 nM	124 nM	5870 nM	6440 nM	≥ 10000 nM	–	Ratio Ki (Homo sapiens [2]): < 1000; Ratio Ki (Homo sapiens [3]): < 1000
Nc1nc(C(=O)NCc2ccncc2)cc(-c2ccco2)n1	388 nM	1340 nM	–	–	–	–	–
COCc1cccc(CNC(=O)c2cc(-c3ccco3)nc(N)n2)n1	1.7 nM	42 nM	460 nM	1740 nM	≥ 10000 nM	0.1 mg/kg	Ratio Ki (Homo sapiens [2]): < 1000; Ratio Ki (Homo sapiens [3]): < 1000; solubility [5]: 450 µM (≈ 153 µg/mL); Activity [6]: Not Active; half-life [7]: 1 h; Drug uptake (Brain): 85%; half-life [8]: 1 h; Tmax [9]: 0.25 h
Nc1nc(C(=O)NCc2cccc(F)c2)cc(-c2ccco2)n1	4.8 nM	39 nM	924 nM	1060 nM	≥ 10000 nM	–	–
Nc1nc(C(=O)NCc2ccc(F)cc2)cc(-c2ccco2)n1	20 nM	140 nM	–	–	–	–	–
Nc1nc(NC(=O)c2ccncc2)c([N+](=O)[O-])c(-c2ccco2)n1	153 nM	2000 nM	–	–	–	–	–

— ChEMBL document CHEMBL1151872, “Antagonists of the human A(2A) receptor. Part 5: Highly bio-available pyrimidine-4-carboxamides” (Bioorg Med Chem Lett, 2009)
